Data: patent US20210254056A1, “IDENTIFICATION AND TARGETED MODULATION OF GENE SIGNALING NETWORKS” (CAMP4 THERAPEUTICS CORPORATION, priority 2017, published 2021)

System: hepatocytes
Assay: RNA-seq of hepatocytes treated with Phase III failure compounds
Description: RNA-seq was performed to determine the effects of the compounds on hepatocytes.
Significance was determined by the criteria of FPKM≥0.5, a log 2(fold-change)≥1, and a […].

CCC(CC)[C@H](NC(C)=O)[C@@H]1[C@H](O)[C@@H](C(=O)O)C[C@H]1NC(=N)N.O.O.O [peramivir (trihydrate), peramivir]
RNA-seq results, gene HYLS1 (HYLS1 expression in hepatocytes): −0.16 | RNA-seq results, gene ID1 (ID1 expression in hepatocytes): −0.69 | RNA-seq results, gene IDH1 (IDH1 expression in hepatocytes): 0.19 | RNA-seq results, gene IDH2 (IDH2 expression in hepatocytes): 0 | RNA-seq results, gene IDUA (IDUA expression in hepatocytes): 0.34 | RNA-seq results, gene IFIH1 (IFIH1 expression in hepatocytes): −0.06 | RNA-seq results, gene IFNAR2 (IFNAR2 expression in hepatocytes): 0.01 | RNA-seq results, gene IFT27 (IFT27 expression in hepatocytes): 0.27 | RNA-seq results, gene IFT80 (IFT80 expression in hepatocytes): −0.41 | RNA-seq results, gene IFT122 (IFT122 expression in hepatocytes): −0.16 | RNA-seq results, gene IFT140 (IFT140 expression in hepatocytes): 0.27 | RNA-seq results, gene IFT172 (IFT172 expression in hepatocytes): 0.16 | RNA-seq results, gene IGFALS (IGFALS expression in hepatocytes): 0.11 | RNA-seq results, gene IKBKG (IKBKG expression in hepatocytes): 0.3 | RNA-seq results, gene IL1RN (IL1RN expression in hepatocytes): 0.21 | RNA-seq results, gene IL2RG (IL2RG expression in hepatocytes): 0.6 | RNA-seq results, gene INSR (INSR expression in hepatocytes): 0.28 | RNA-seq results, gene INVS (INVS expression in hepatocytes): −0.03 | RNA-seq results, gene ISYNA1 (ISYNA1 expression in hepatocytes): −0.17 | RNA-seq results, gene ITGB3 (ITGB3 expression in hepatocytes): 0.27 | RNA-seq results, gene IYD (IYD expression in hepatocytes): −0.02 | RNA-seq results, gene JAG1 (JAG1 expression in hepatocytes): −0.1 | RNA-seq results, gene JAK2 (JAK2 expression in hepatocytes): −0.14 | RNA-seq results, gene KCTD7 (KCTD7 expression in hepatocytes): 0.11 | RNA-seq results, gene KCTD11 (KCTD11 expression in hepatocytes): −0.21 | RNA-seq results, gene KHK (KHK expression in hepatocytes): 0.03 | RNA-seq results, gene KIAA0586 (KIAA0586 expression in hepatocytes): −0.2 | RNA-seq results, gene KMT2D (KMT2D expression in hepatocytes): −0.05 | RNA-seq results, gene KPTN (KPTN expression in hepatocytes): 0.22 | RNA-seq results, gene KRIT1 (KRIT1 expression in hepatocytes): −0.1 | RNA-seq results, gene KRT18 (KRT18 expression in hepatocytes): −0.47 | RNA-seq results, gene KYNU (KYNU expression in hepatocytes): 0.16 | RNA-seq results, gene LAMB2 (LAMB2 expression in hepatocytes): 0.01 | RNA-seq results, gene LCAT (LCAT expression in hepatocytes): 0.11 | RNA-seq results, gene LDHB (LDHB expression in hepatocytes): −0.34 | RNA-seq results, gene LDLR (LDLR expression in hepatocytes): 0.24 | RNA-seq results, gene LDLRAP1 (LDLRAP1 expression in hepatocytes): 0.2 | RNA-seq results, gene LIPC (LIPC expression in hepatocytes): −0.29 | RNA-seq results, gene LIPT1 (LIPT1 expression in hepatocytes): −0.12 | RNA-seq results, gene LMNB2 (LMNB2 expression in hepatocytes): 0.14 | RNA-seq results, gene LPA (LPA expression in hepatocytes): 0.07 | RNA-seq results, gene LPIN1 (LPIN1 expression in hepatocytes): 0.22 | RNA-seq results, gene LPIN2 (LPIN2 expression in hepatocytes): 0.1 | RNA-seq results, gene LRBA (LRBA expression in hepatocytes): −0.32 | RNA-seq results, gene LRP5 (LRP5 expression in hepatocytes): 0.15 | RNA-seq results, gene LYRM4 (LYRM4 expression in hepatocytes): 0.19 | RNA-seq results, gene LYST (LYST expression in hepatocytes): −0.14 | RNA-seq results, gene MAN1A1 (MAN1A1 expression in hepatocytes): −0.26 | RNA-seq results, gene MAN2B1 (MAN2B1 expression in hepatocytes): 0.13 | RNA-seq results, gene MAOB (MAOB expression in hepatocytes): −0.16 | RNA-seq results, gene MAT1A (MAT1A expression in hepatocytes): 0.3 | RNA-seq results, gene MBL2 (MBL2 expression in hepatocytes): −0.47 | RNA-seq results, gene MCCC1 (MCCC1 expression in hepatocytes): 0.01 | RNA-seq results, gene MCCC2 (MCCC2 expression in hepatocytes): −0.2 | RNA-seq results, gene MCM6 (MCM6 expression in hepatocytes): −0.05 | RNA-seq results, gene MEN1 (MEN1 expression in hepatocytes): 0.15 | RNA-seq results, gene MET (MET expression in hepatocytes): −0.2 | RNA-seq results, gene MGAT2 (MGAT2 expression in hepatocytes): 0.09 | RNA-seq results, gene MKS1 (MKS1 expression in hepatocytes): 0.17 | RNA-seq results, gene MLH1 (MLH1 expression in hepatocytes): −0.06 | RNA-seq results, gene MMAA (MMAA expression in hepatocytes): −0.35 | RNA-seq results, gene MMAB (MMAB expression in hepatocytes): 0.27 | RNA-seq results, gene MMADHC (MMADHC expression in hepatocytes): −0.24 | RNA-seq results, gene MOCS1 (MOCS1 expression in hepatocytes): 0.13 | RNA-seq results, gene MOGAT2 (MOGAT2 expression in hepatocytes): −0.04 | RNA-seq results, gene MOGS (MOGS expression in hepatocytes): 0.24 | RNA-seq results, gene MPZ (MPZ expression in hepatocytes): 0.41 | RNA-seq results, gene MRPL3 (MRPL3 expression in hepatocytes): −0.06 | RNA-seq results, gene MTHFR (MTHFR expression in hepatocytes): 0.35 | RNA-seq results, gene MTM1 (MTM1 expression in hepatocytes): −0.13 | RNA-seq results, gene MTO1 (MTO1 expression in hepatocytes): −0.03 | RNA-seq results, gene MTR (MTR expression in hepatocytes): −0.08 | RNA-seq results, gene MTRR (MTRR expression in hepatocytes): −0.2 | RNA-seq results, gene MTTP (MTTP expression in hepatocytes): −0.29 | RNA-seq results, gene MVK (MVK expression in hepatocytes): 0.29 | RNA-seq results, gene MYH9 (MYH9 expression in hepatocytes): 0.02 | RNA-seq results, gene MYO5B (MYO5B expression in hepatocytes): 0.2 | RNA-seq results, gene NAGS (NAGS expression in hepatocytes): 0.46 | RNA-seq results, gene NARS2 (NARS2 expression in hepatocytes): −0.14 | RNA-seq results, gene NAT2 (NAT2 expression in hepatocytes): −0.1 | RNA-seq results, gene NBAS (NBAS expression in hepatocytes): −0.22 | RNA-seq results, gene NCF2 (NCF2 expression in hepatocytes): 0.47 | RNA-seq results, gene NEK1 (NEK1 expression in hepatocytes): 0.1 | RNA-seq results, gene NEK8 (NEK8 expression in hepatocytes): 0.29 | RNA-seq results, gene NEU1 (NEU1 expression in hepatocytes): 0.51 | RNA-seq results, gene NFKB2 (NFKB2 expression in hepatocytes): 0.12 | RNA-seq results, gene NFKBIA (NFKBIA expression in hepatocytes): −0.06 | RNA-seq results, gene NFU1 (NFU1 expression in hepatocytes): −0.04 | RNA-seq results, gene NGLY1 (NGLY1 expression in hepatocytes): −0.07 | RNA-seq results, gene NHP2 (NHP2 expression in hepatocytes): 0.21 | RNA-seq results, gene NME1 (NME1 expression in hepatocytes): 0.06 | RNA-seq results, gene NOD2 (NOD2 expression in hepatocytes): 0.33 | RNA-seq results, gene NOP10 (NOP10 expression in hepatocytes): 0.2 | RNA-seq results, gene NOTCH1 (NOTCH1 expression in hepatocytes): 0.16 | RNA-seq results, gene NOTCH2 (NOTCH2 expression in hepatocytes): −0.03 | RNA-seq results, gene NPC1 (NPC1 expression in hepatocytes): 0.3 | RNA-seq results, gene NR1H4 (NR1H4 expression in hepatocytes): 0.22 | RNA-seq results, gene NUBPL (NUBPL expression in hepatocytes): −0.06 | RNA-seq results, gene NUDT7 (NUDT7 expression in hepatocytes): −0.23 | RNA-seq results, gene NUDT12 (NUDT12 expression in hepatocytes): −0.17 | RNA-seq results, gene OAT (OAT expression in hepatocytes): 0.1 | RNA-seq results, gene OPA3 (OPA3 expression in hepatocytes): 0.03 | RNA-seq results, gene OTC (OTC expression in hepatocytes): −0.18 | RNA-seq results, gene PAF1 (PAF1 expression in hepatocytes): 0.09 | RNA-seq results, gene PAH (PAH expression in hepatocytes): 0.05 | RNA-seq results, gene PANK2 (PANK2 expression in hepatocytes): −0.22 | RNA-seq results, gene PAOX (PAOX expression in hepatocytes): 0.16 | RNA-seq results, gene PC (PC expression in hepatocytes): 0.17 | RNA-seq results, gene PCCA (PCCA expression in hepatocytes): 0.13 | RNA-seq results, gene PCK2 (PCK2 expression in hepatocytes): 0.46 | RNA-seq results, gene PCSK9 (PCSK9 expression in hepatocytes): 0.26 | RNA-seq results, gene PCYT1A (PCYT1A expression in hepatocytes): 0.09 | RNA-seq results, gene PDGFRA (PDGFRA expression in hepatocytes): −0.43 | RNA-seq results, gene PDP1 (PDP1 expression in hepatocytes): −0.04 | RNA-seq results, gene PEPD (PEPD expression in hepatocytes): 0.32 | RNA-seq results, gene PEX11A (PEX11A expression in hepatocytes): 0.02 | RNA-seq results, gene PEX12 (PEX12 expression in hepatocytes): 0.11 | RNA-seq results, gene PEX14 (PEX14 expression in hepatocytes): 0.15
